ChEMBL document CHEMBL3085632, “Subcellular localization of proflavine derivative and induction of oxidative stress--in vitro studies” (Bioorg Med Chem, 2013)
Activity calls are given as the source filed them. No cut-off for these calls is given here.

Tests used:
[1] = Drug uptake in nucleus of mouse L1210 cells by Hoechst-33342 staining-based fluorescence microscopic analysis; format: ADME, cell-based
L1210 [2] = assay: Cytotoxicity against mouse L1210 cells assessed as decrease in intracellular ATP level at 10 uM after 6 hrs by luminometric assay; format: functional; design: scale not given: the % may be the effect or the level left
[3] = Selectivity ratio of IC50 for mouse NIH/3T3 cells to IC50 for human HL60 cells; format: ADME, cell-based, HL-60; settings: NIH/3T3 cells versus HL60 cells, read-out: Ratio IC50
L1210 [4] = assay: Induction of apoptosis in mouse L1210 cells assessed as nucleosomal DNA fragmentation at 10 to 15 uM after 4 hrs by agarose gel electrophoresis; format: functional, cell-based
[5] = Drug uptake in lysosomes of mouse L1210 cells at 4 uM after 30 mins by MDC staining-based flow cytometric analysis; format: ADME, cell-based, Lysosome; settings: l1210, 0.5 h
L1210 [6] = assay: Induction of intracellular ROS production in mouse L1210 cells at 5 uM after 6 hrs by Dihydroethidium staining-based fluorescence assay in absence of vitamin E relative to control; format: functional
L1210 [7] = assay: Cell cycle arrest in mouse L1210 cells assessed as accumulation at S-phase at 10 uM after 5 hrs by propidium iodide staining-based flow cytometric analysis relative to control; format: functional
L1210 [8] = assay: Induction of intracellular ROS production in mouse L1210 cells at 5 uM after 6 hrs by Dihydroethidium staining-based fluorescence assay in presence of vitamin E relative to control; format: functional, cell-based
NIH3T3 = assay: Cytotoxicity against mouse NIH/3T3 cells assessed as cell viability after 72 hrs by MTT assay; format: cell-based; settings: NIH3T3, 72 h
L1210 [9] = assay: Cytotoxicity against mouse L1210 cells assessed as cell viability at 50 uM after 24 hrs by MTT assay in presence of vitamin E; format: functional; settings: L1210, 24 h, read-out: Activity
L1210 [10] = assay: Cell cycle arrest in mouse L1210 cells assessed as accumulation at sub-G0 phase at 10 uM after 5 hrs by propidium iodide staining-based flow cytometric analysis relative to control; format: functional
L1210 [11] = assay: Cytotoxicity against mouse L1210 cells assessed as cell viability at 5 to 20 uM after 24 hrs by MTT assay in presence of vitamin E; format: functional, cell-based
[12] = Drug uptake in nucleus of mouse L1210 cells at 5 uM after 1 hr by propidium iodide staining-based confocal microscopic analysis; format: ADME, cell-based; settings: l1210, 1 h
L1210 [13] = assay: Induction of apoptosis in mouse L1210 cells assessed as DNA ladder formation at 10 to 15 uM after 8 hrs by agarose gel electrophoresis; format: functional, cell-based
[14] = Selectivity ratio of IC50 for mouse NIH/3T3 cells to IC50 for mouse L1210 cells; format: ADME, cell-based; settings: NIH/3T3 cells versus L1210 cells, read-out: Ratio IC50
[15] = Drug uptake in mitochondria of mouse L1210 cells at 4 uM after 0.5 to 24 hrs by MitoRed staining-based flow cytometric analysis; format: ADME; settings: l1210, 4 µM
L1210 [16] = assay: Cytotoxicity against mouse L1210 cells assessed as intracellular ATP level at 5 to 10 uM after 6 hrs by luminometric assay in presence of vitamin E; format: functional, cell-based

Drug uptake [1]: Not Active | Drug uptake [5]: Not Active | Drug uptake [12]: Not Active | Drug uptake [15]: Active
Compound: CCCCCCN1C(=O)CN/C1=N\c1ccc2cc3ccc(/N=C4\NCC(=O)N4CCCCCC)cc3nc2c1.Cl
Activity (L1210 [2]): 50% | selectivity ratio [3]: 4 | Activity (L1210 [4]): inactive | fold change (FC) (L1210 [6]): 4 | Activity (L1210 [7]): Active | Activity (L1210 [8]): inactive | IC50 (NIH3T3): 18.6 µM | viability at 50 µM (L1210 [9]): 80% | Activity (L1210 [10]): 17.7% | Activity (L1210 [11]): Active | Activity (L1210 [13]): Active | selectivity ratio [14]: 4 | Activity (L1210 [16]): inactive
